Earlier results as cited in patent US20220287964A1, “TOPICAL FORMULATIONS COMPRISING CANNABIDIOL, METHOD OF PREP ARING THE COMPOSITION AND USE THEREOF” (CS Medica A/S, priority 2019, published 2022).

Conditions: oral administration, given for comparison; cited from earlier work

Structure (SMILES): C=C(C)[C@@H]1CCC(C)=C[C@H]1c1c(O)cc(CCCCC)cc1O [cannabidiol, Cannabidiol]
- Absorbed through the gastrointestinal passage: less than 10%
